{"source": "paper PMC12801355", "about": "“Peptide Amphiphiles Hitchhike on Endogenous Biomolecules for Enhanced Cancer Imaging and Therapy” (Advanced Materials (Deerfield Beach, Fla.), 2025)", "assay_in_all_cases": "Mass spectrometry of proteins pulled down with biotinylated SA‐E (SA‐Eb) from human plasma", "format_in_all_cases": "binding", "key": {"[1]": {"biological_target": "T1, human plasma proteins (Homo sapiens, UniProt P02652)", "T1 construct": "incubated with 50% pooled human plasma at 37 °C for 2 h; from tissue; host or cells: pooled human plasma (50%)", "T1 sequence (P02652 19-100)": "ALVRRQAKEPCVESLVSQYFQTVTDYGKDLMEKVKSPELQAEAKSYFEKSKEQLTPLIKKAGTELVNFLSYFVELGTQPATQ", "protocol": "(§1) Samples were prepared for mass spectrometry analysis via a pull‐down of a biotinylated version of the SA‐E probe (SA‐Eb, 100 µM) incubated with 50% pooled human plasma at 37 °C for 2 h. Before incubation with the SA‐Eb‐plasma mixture, magnetic streptavidin‐coated beads (Dynabeads MyOne Streptavidin T1, Invitrogen, 65601) were washed with PBS (10 mM, pH 7.4) then blocked with 1% casein equal to the total initial volume of beads for 15 min at room temperature. After blocking, beads were washed again with PBS. Beads were then combined with SA‐Eb‐plasma solution, 25 µL beads to 200 µL mixture. This mixture was then incubated at room temperature for 30 min. After incubation, the remaining solution was removed, and the beads were washed five times with PBS. Bound SA‐Eb was eluted from beads in 30 µL 0.5% Triton X‐100 solution. Magnetic beads were then removed, and the elution was collected for analysis. For plasma control, the incubation with SA‐Eb step was skipped, and 50% plasma in PBS was incubated with beads and washed and eluted using the same method as the SA‐Eb‐plasma solution. The elution solutions were then analyzed by the Proteomics Shared Resource facility at Oregon Health & Science University (See Supporting Information for details).\n(§2) Sample Preparation. Eluted plasma samples were dried down and stored at -80°C. Samples were thawed at room temperature for 10 min, and 75 µL of SDS protein extraction buffer (5% SDS, 50 mM […]; TEAB) was added to each sample. Samples were shaken in a Thermo mixer for 10 minutes at room temperature and centrifuged at 10,000 g for 5 min. Each sample was transferred from a 0.5 mL tube to a 1.5 mL LoBind centrifuge tube. Samples were reduced by adding 3.4 µL of 0.5 M dithiothreitol and incubated at 95 °C for 10 min. Samples were alkylated by the addition of 6.8 µL of 0.5 M iodoacetamide and were incubated at room temperature for 30 min in the dark. Samples were then acidified by the addition of 8.52 µL of 12% phosphoric acid, and 562 µL of SDS protein binding buffer (90% methanol, 100 mM TEAB, pH 7.51). Samples were transferred 165 µL at a time to S-trap micro columns (Protifi, Farmingdale, NY) and inserted into 1.5 mL of polypropylene tubes. Samples were centrifuged at 4,000 g for 3 min between each addition of the sample. S-trap columns were washed 6 times using 150 µL of 90% methanol containing 100 mM of TEAB followed by centrifugation at 4,000g for 3 min between each wash step. S-trap columns containing the bound sample proteins were transferred to 1.5 mL LoBind centrifuge tubes and 40 µL of 80 ng/µL sequencing grade modified trypsin (Pierce TM Trypsin Protease MS-Grade, XG348166) in 50 mM TEAB was added. S-trap columns were loosely capped, and digestion was performed at 37°C overnight in a humidified chamber.\n(§3) After completion of digestion, peptides were eluted by sequential addition of 40 µL of TEAB, 40 µL of 0.2% aqueous formic acid, and 40 µl of 50% acetonitrile, 0.2% formic acid, with centrifugation at 4,000 g for 4 min between each addition of elution buffer. The elution fractions were combined and then dried by vacuum centrifugation. Samples were reconstituted by adding 20 µL of 5% formic acid, shaking at 37 °C, and spinning at 15,000 g for 5 min. The supernatant of each sample was transferred to an auto-sample vial.\n(§4) Data analysis. Mass spectrometry data from all samples were processed using COMET/PAWS against Uniprot_Human_database. Comet (v. 2016.01, rev. 3)^8 was used to search MS2 Spectra against a January 2023 version of canonical FASTA protein database containing human uniprot sequences, and concatenated sequence-reversed entries to estimate error thresholds and 179 common contaminant sequences and their reversed forms. The database processing was performed using python scripts available at https://github.com/pwilmart/fasta_utilities.git and Comet results were processed using the PAW pipeline2 from https://github.com/pwilmart/PAW_pipeline.git."}, "[2]": {"biological_target": "T2, human plasma proteins (Homo sapiens, UniProt P02649)", "T2 construct": "incubated with 50% pooled human plasma at 37 °C for 2 h; from tissue; host or cells: pooled human plasma (50%)", "T2 sequence (P02649 19-317)": "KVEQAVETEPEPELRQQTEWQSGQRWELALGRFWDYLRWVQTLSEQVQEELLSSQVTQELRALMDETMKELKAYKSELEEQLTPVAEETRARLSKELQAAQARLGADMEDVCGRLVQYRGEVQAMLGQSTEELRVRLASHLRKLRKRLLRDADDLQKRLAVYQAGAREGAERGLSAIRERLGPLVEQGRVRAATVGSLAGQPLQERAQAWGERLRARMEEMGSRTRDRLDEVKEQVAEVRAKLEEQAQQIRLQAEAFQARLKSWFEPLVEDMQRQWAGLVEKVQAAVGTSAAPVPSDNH", "protocol": "as §1, §2, §3, §4"}, "[3]": {"biological_target": "T3, human plasma proteins (Homo sapiens, UniProt P06727)", "T3 construct": "incubated with 50% pooled human plasma at 37 °C for 2 h; from tissue; host or cells: pooled human plasma (50%)", "T3 sequence (P06727 21-396)": "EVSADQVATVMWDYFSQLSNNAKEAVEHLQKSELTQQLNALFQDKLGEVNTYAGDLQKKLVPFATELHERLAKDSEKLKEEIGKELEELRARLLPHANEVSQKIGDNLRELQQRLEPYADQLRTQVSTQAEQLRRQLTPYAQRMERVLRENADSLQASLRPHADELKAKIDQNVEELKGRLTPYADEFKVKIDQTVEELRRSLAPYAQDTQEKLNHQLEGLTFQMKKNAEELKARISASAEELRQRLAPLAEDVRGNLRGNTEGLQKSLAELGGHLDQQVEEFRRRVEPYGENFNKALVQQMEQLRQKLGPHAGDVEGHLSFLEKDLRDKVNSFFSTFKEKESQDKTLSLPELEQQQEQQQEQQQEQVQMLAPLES", "protocol": "as §1, §2, §3, §4"}, "[4]": {"biological_target": "T4, human plasma proteins (Homo sapiens, UniProt P02768)", "T4 construct": "incubated with 50% pooled human plasma at 37 °C for 2 h; from tissue; host or cells: pooled human plasma (50%)", "T4 sequence (P02768 25-609)": "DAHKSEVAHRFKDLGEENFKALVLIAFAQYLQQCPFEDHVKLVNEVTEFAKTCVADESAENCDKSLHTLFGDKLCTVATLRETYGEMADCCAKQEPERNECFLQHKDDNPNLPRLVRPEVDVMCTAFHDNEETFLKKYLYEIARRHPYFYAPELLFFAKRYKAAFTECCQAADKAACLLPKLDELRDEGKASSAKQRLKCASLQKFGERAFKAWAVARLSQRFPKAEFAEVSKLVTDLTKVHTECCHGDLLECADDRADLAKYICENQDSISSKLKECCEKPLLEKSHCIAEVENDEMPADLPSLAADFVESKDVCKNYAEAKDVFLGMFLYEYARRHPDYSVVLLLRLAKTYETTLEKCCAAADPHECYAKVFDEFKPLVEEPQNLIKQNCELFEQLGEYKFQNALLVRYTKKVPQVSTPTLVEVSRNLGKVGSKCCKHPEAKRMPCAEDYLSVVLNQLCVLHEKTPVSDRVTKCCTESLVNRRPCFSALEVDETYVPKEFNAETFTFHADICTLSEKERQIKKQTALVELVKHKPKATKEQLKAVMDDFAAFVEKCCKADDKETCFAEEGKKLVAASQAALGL", "conditions": "for Total Counts, Albumin: pull‐down with biotinylated SA-E", "protocol": "as §1, §2, §3, §4"}, "[5]": {"biological_target": "T5, human plasma proteins (Homo sapiens, UniProt P02654)", "T5 construct": "incubated with 50% pooled human plasma at 37 °C for 2 h; from tissue; host or cells: pooled human plasma (50%)", "T5 sequence (P02654 27-83)": "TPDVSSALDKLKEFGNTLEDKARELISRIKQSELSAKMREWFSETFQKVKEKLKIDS", "protocol": "as §1, §2, §3, §4"}, "[6]": {"biological_target": "T6, human plasma proteins (Homo sapiens, UniProt P02656)", "T6 construct": "incubated with 50% pooled human plasma at 37 °C for 2 h; from tissue; host or cells: pooled human plasma (50%)", "T6 sequence (P02656 21-99)": "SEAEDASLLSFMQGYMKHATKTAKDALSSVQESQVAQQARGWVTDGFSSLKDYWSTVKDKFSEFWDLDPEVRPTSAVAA", "protocol": "as §1, §2, §3, §4"}}, "note": "Where a SMILES comes first, the peptide text is derived from it. The star is where a group is joined. Palmitoyl = CCCCCCCCCCCCCCCC(=O)*", "data": [{"smiles": "CCCCCCCCCCCCCCCC(=O)NCC(=O)NCC(=O)NCC(=O)N[C@@H](Cc1c[nH]cn1)C(=O)N[C@@H](C)C(=O)N[C@@H](C)C(=O)N[C@@H](CC(N)=O)C(=O)NCC(=O)N[C@@H](CCC(=O)O)C(=O)N[C@@H](CCC(=O)O)C(=O)N[C@@H](CS)C(=O)N[C@@H](CCC(=O)O)C(=O)O", "note": "[SA‐E] (Palmitoyl-GGGHAANGEECE-OH)", "values": [{"measurement": "Percentage, Apolipoprotein A-II", "setting": "[1]; replicate 1", "value": 0.2, "unit": "%"}, {"measurement": "Total Counts, Apolipoprotein A-II", "setting": "[1]; replicate 1", "value": 6}, {"measurement": "Percentage, Apolipoprotein A-II", "setting": "[1]; replicate 2", "value": 0.2, "unit": "%"}, {"measurement": "Total Counts, Apolipoprotein A-II", "setting": "[1]; replicate 2", "value": 6}, {"measurement": "Percentage, Apolipoprotein E", "setting": "[2]; replicate 1", "value": 1.8, "unit": "%"}, {"measurement": "Total Counts, Apolipoprotein E", "setting": "[2]; replicate 1", "value": 66}, {"measurement": "Percentage, Apolipoprotein E", "setting": "[2]; replicate 2", "value": 2.1, "unit": "%"}, {"measurement": "Total Counts, Apolipoprotein E", "setting": "[2]; replicate 2", "value": 59}, {"measurement": "Percentage, Apolipoprotein A-IV", "setting": "[3]; replicate 1", "value": 1.1, "unit": "%"}, {"measurement": "Total Counts, Apolipoprotein A-IV", "setting": "[3]; replicate 1", "value": 39}, {"measurement": "Percentage, Apolipoprotein A-IV", "setting": "[3]; replicate 2", "value": 0.6, "unit": "%"}, {"measurement": "Total Counts, Apolipoprotein A-IV", "setting": "[3]; replicate 2", "value": 16}, {"measurement": "Total Counts, Albumin", "setting": "[4]; replicate 1", "value": 1215}, {"measurement": "Total Counts, Albumin", "setting": "[4]; replicate 2", "value": 923}, {"measurement": "Percentage, Albumin", "setting": "[4]; replicate 1", "value": 34.0, "unit": "%"}, {"measurement": "Percentage, Albumin", "setting": "[4]; replicate 2", "value": 32.5, "unit": "%"}, {"measurement": "Percentage, Apolipoprotein C-I", "setting": "[5]; replicate 1", "value": 0.2, "unit": "%"}, {"measurement": "Total Counts, Apolipoprotein C-I", "setting": "[5]; replicate 1", "value": 6}, {"measurement": "Percentage, Apolipoprotein C-I", "setting": "[5]; replicate 2", "value": 0.3, "unit": "%"}, {"measurement": "Total Counts, Apolipoprotein C-I", "setting": "[5]; replicate 2", "value": 9}, {"measurement": "Percentage, Apolipoprotein C-III", "setting": "[6]; replicate 1", "value": 0.1, "unit": "%"}, {"measurement": "Total Counts, Apolipoprotein C-III", "setting": "[6]; replicate 1", "value": 4}, {"measurement": "Percentage, Apolipoprotein C-III", "setting": "[6]; replicate 2", "value": 0.2, "unit": "%"}, {"measurement": "Total Counts, Apolipoprotein C-III", "setting": "[6]; replicate 2", "value": 5}]}]}
